Data taken from the NIST ThermoML archive (doi:10.1016/j.jct.2019.04.010).
± gives the expanded uncertainty stated by the source.

Assay: xn = mol fraction of the nth substance listed
Details: 100 kPa, Liquid; for mass density: Vibrating tube method; for viscosity: Concentric cylinders viscometry

CCCCn1cc[n+](C)c1.O=[N+]([O-])[O-] [1-butyl-3-methylimidazolium nitrate] + CC(C)O
Details | mass density, 308.15 K [kg/m3] | mass density, 313.15 K [kg/m3] | mass density, 318.15 K [kg/m3] | mass density, 323.15 K [kg/m3] | viscosity, 313.15 K [mPa·s] | viscosity, 318.15 K [mPa·s] | viscosity, 323.15 K [mPa·s]
x1 = 0.0815 | 841.9 ± 1.8 | 837.9 ± 1.8 | 833.7 ± 1.9 | 829.5 ± 1.9 | 2.53 ± 0.51 | 2.25 ± 0.45 | 2 ± 0.4
x1 = 0.1596 | 894.8 ± 1.6 | 891.1 ± 1.6 | 887.1 ± 1.6 | 883.3 ± 1.6 | 3.95 ± 0.79 | 3.53 ± 0.71 | 3.09 ± 0.62
x1 = 0.2405 | 940.1 ± 1.4 | 936.5 ± 1.4 | 932.8 ± 1.4 | 929.2 ± 1.4 | 5.7 ± 1.1 | 5.15 ± 1 | 4.61 ± 0.92
x1 = 0.3495 | 989.6 ± 1.3 | 986.4 ± 1.3 | 982.9 ± 1.3 | 979.5 ± 1.3 | 8.96 ± 1.8 | 7.91 ± 1.6 | 7.17 ± 1.4
x1 = 0.4405 | 1023.7 ± 1.2 | 1020.6 ± 1.2 | 1017.3 ± 1.2 | 1014.1 ± 1.2 | 12.29 ± 2.5 | 10.89 ± 2.2 | 9.8 ± 2
x1 = 0.5607 | 1060.8 ± 1.2 | 1057.8 ± 1.2 | 1054.7 ± 1.2 | 1051.7 ± 1.2 | 17.93 ± 3.6 | 15.75 ± 3.1 | 14.17 ± 2.8
x1 = 0.6506 | 1084.2 ± 1.2 | 1081.3 ± 1.2 | 1078.3 ± 1.2 | 1075.4 ± 1.2 | 23.42 ± 4.7 | 20.46 ± 4.1 | 18.14 ± 3.6
x1 = 0.7413 | 1104.7 ± 1.2 | 1101.7 ± 1.2 | 1098.9 ± 1.2 | 1096.1 ± 1.2 | 30.6 ± 6.1 | 26.05 ± 5.2 | 23.09 ± 4.6
x1 = 0.8515 | 1126 ± 1.3 | 1123.2 ± 1.3 | 1120.5 ± 1.3 | 1117.8 ± 1.3 | 42.3 ± 8.5 | 35.1 ± 7 | 30.31 ± 6.1
x1 = 0.9396 | 1140.6 ± 1.4 | 1137.8 ± 1.4 | 1135 ± 1.4 | 1132.5 ± 1.4 | 58.7 ± 12 | 45.9 ± 9.2 | 37.81 ± 7.6
x1 = 1 | 1149.3 ± 1.5 | 1146.5 ± 1.5 | 1143.8 ± 1.4 | 1141.2 ± 1.4 | 75.12 ± 15 | 56.28 ± 11 | 45.17 ± 9.1
